How the values were obtained:
Assay type in all cases: cell-based, human
[1] = system: gastric adenocarcinoma (AGS); test: in vitro MTT proliferation assay, AGS cells; settings: 48 hrs; for inhibition of cancer cell line AGS: 0.3-100 μg/ml, absorbance at 492 nm; for IC50 values for AGS: calculated with XLfit
Method: (§1) An in vitro assay was conducted to evaluate the efficacy of LuA, LuB, and LuE in inhibiting proliferation of cancer cells.
(§2) Four human tumor cell lines, i.e., gastric adenocarcinoma (AGS, BGC-823), lung carcinoma (A549), and lung adenocarcinoma (SPC-A-1), were purchased from the Cell Bank of Shanghai Institute of Cell Biology, Chinese Academy of Sciences, and cultured in Iscove's Modified Dulbecco's Medium (IMDM) containing 10% fetal bovine serum (FBS) in an incubator at 37° C. under 5% CO2. Cells of 70˜80% confluence were trypsinized, resuspended in IMDM medium containing 10% FBS at 1×10^5 cells/ml, and seeded in 96-well plates (100 μl in each well). The plates were incubated at 37° C. under 5% CO2 overnight.
(§3) A DMSO solution containing LuA, LuB, or LuE was added to each “treatment” well. Efficacy of LuA, LuB, and LuE at six concentrations, 100, 30, 10, 3, 1, and 0.3 μg/ml, was studied. Wells, to each of which a DMSO solution (containing no LuA, LuB, or LuE) was added, were used as “control;” and wells, to each of which no LuA, LuB, LuE, or DMSO was added, were used as “background.” The plates were then incubated at 37° C. under 5% CO2 for 48 hrs.
(§4) 10 μl of 3-(4,5-dimethyl-thiazol-2-yl)-2,5-diphenyl tetrazolium bromide in phosphate buffered saline (PBS), 5 mg/ml, was added to all wells except the background wells. After incubation for 3-4 hrs, the cells were collected by spinning at 1000 rpm for 15 minutes, followed by removal of the supernatants by vacuum. The cells thus collected in each well, after wash with 150 μl of PBS, were placed in 150 μl of DMSO.
(§5) The plates were then placed on a shaker at 150 rpm for 15 minutes to dissolve the precipitate in each well. Absorbance was measured at 492 nm using a microplate reader.
(§6) Inhibition ratios for cells treated with LuA, LuB, and LuE, respectively, were calculated according to the following equation: [formula]
(§7) A software program, XLfit (ID Business Solutions), was used to calculate the concentrations of LuA, LuB, and LuE required to reach 10, 20, . . . 90% inhibition (i.e., IC10, IC20, . . . IC90) for each tested tumor cell line.

lung carcinoma (A549) = test: in vitro MTT proliferation assay, A549 cells; settings: 48 hrs; for inhibition of cancer cell line A549: 0.3-100 μg/ml, absorbance at 492 nm; for IC50 values for A549: calculated with XLfit
Method: as §1, §2, §3, §4, §5, §6, §7

[2] = system: lung adenocarcinoma (SPC-A-1); test: in vitro MTT proliferation assay, SPC-A-1 cells; settings: 48 hrs, 0.3-100 μg/ml, absorbance at 492 nm
Method: as §1, §2, §3, §4, §5, §6, §7

[3] = system: gastric adenocarcinoma (BGC-823); test: in vitro MTT proliferation assay, BGC-823 cells; settings: 48 hrs; for inhibition of cancer cell line BGC-823: 0.3-100 μg/ml, absorbance at 492 nm; for IC50 values for BGC-823: calculated with XLfit
Method: as §1, §2, §3, §4, §5, §6, §7

| IC50 values for AGS [1] | IC50 values for A549 (lung carcinoma (A549)) | IC50 values for BGC-823 [3] | SMILES | inhibition of cancer cell line AGS [1] | inhibition of cancer cell line A549 (lung carcinoma (A549)) | inhibition of cancer cell line SPC-A-1 [2] | inhibition of cancer cell line BGC-823 [3] |
| --- | --- | --- | --- | --- | --- | --- | --- |
| particularly low | particularly low | particularly low | C=C1C(=O)[C@]23C[C@H]1C[C@H](O)[C@H]2[C@]1(C)C[C@H](OC(C)=O)[C@H](OC(C)=O)C(C)(C)[C@H]1[C@@H](OC(C)=O)[C@@H]3O [LuB, Lushanrubescensin B] | effectively inhibited | effectively inhibited | effectively inhibited | effectively inhibited |
| – | – | – | C=C1C(=O)[C@]23C[C@H]1C[C@@H](O)[C@H]2[C@]1(C)C[C@H](OC(C)=O)[C@H](OC(C)=O)C(C)(C)[C@H]1[C@@H](OC(C)=O)[C@@H]3O [LuE, Lushanrubescensin E] | effectively inhibited | effectively inhibited | effectively inhibited | effectively inhibited |
| particularly low | particularly low | particularly low | C=C1C(=O)[C@]23C[C@H]1C[C@H](OC(C)=O)[C@H]2[C@]1(C)C[C@H](OC(C)=O)[C@H](OC(C)=O)C(C)(C)[C@H]1[C@@H](OC(C)=O)[C@@H]3O [LuA, Lushanrubescensin A] | effectively inhibited | effectively inhibited | effectively inhibited | effectively inhibited |

Source: patent US20060160895A1, “Anti-cancer agents” (priority 2004, published 2006)
